According to patent US4918054A, “Antibiotics called `chloropolysporins B and C`, a process for their preparation, and their therapeutic and veterinary use” (Sankyo Company Limited, priority 1985, dated 1990):
≈ marks a conversion by molar mass, not a printed value.

Columns and labels:
Clostridium ramosum = assay: MIC against anaerobic bacteria, GAM agar medium; assay type: cell-based
Eubacterium cylindroides = assay: MIC against anaerobic bacteria, GAM agar medium; assay type: cell-based
[1] = test system: Staphylococcus aureus FDA 209P JC-1; assay: MIC, two-fold agar dilution method, Mueller-Hinton agar; assay type: cell-based
Clostridium perfringens = assay type: cell-based; conditions: anaerobic, GAM agar
[2] = test system: Serratia marcescens SANK 73060; assay: MIC, two-fold agar dilution method, Mueller-Hinton agar; assay type: cell-based
[3] = test system: Klebsiella pneumoniae PCI 602; assay: as above; assay type: cell-based
Propionibacterium acnes = assay: MIC against anaerobic bacteria, GAM agar medium; assay type: cell-based
[4] = test system: Staphylococcus epidermidis SANK 71575; assay: MIC, two-fold agar dilution method, Mueller-Hinton agar; assay type: cell-based
[5] = test system: Enterococcus faecalis SANK 71778; assay: as above; assay type: cell-based
[6] = test system: Fusobacterium necrophorum; assay: MIC against anaerobic bacteria, GAM agar medium; assay type: cell-based
Bacteroides fragilis = assay: MIC against anaerobic bacteria, GAM agar medium; assay type: cell-based
[7] = test system: Mycobacterium smegmatis ATCC 607; assay: MIC, two-fold agar dilution method, Mueller-Hinton agar; assay type: cell-based
[8] = test system: Staphylococcus aureus Smith; assay: as above; assay type: cell-based
Clostridium difficile = assay: MIC against anaerobic bacteria, GAM agar medium; assay type: cell-based
Procedure: The minimal inhibitory concentrations (MIC) of chloropolysporins B and C against various gram-positive and gram-negative bacteria were determined by the two-fold agar dilution method, using a Mueller-Hinton agar medium (produced by Difco); the MIC against anaerobic bacteria was determined using a GAM agar medium (produced by Nissui).

[9] = test system: Escherichia coli NIHJ JC-2; assay: MIC, two-fold agar dilution method, Mueller-Hinton agar; assay type: cell-based
[10] = test system: Peptostreptococcus saccharoliticus; assay: MIC against anaerobic bacteria, GAM agar medium; assay type: cell-based
Solubility in solvents = assay type: physicochemical
[11] = test system: Staphylococcus aureus SANK 70175; assay: MIC, two-fold agar dilution method, Mueller-Hinton agar; assay type: cell-based
[12] = test system: Proteus mirabilis SANK 70461; assay: as above; assay type: cell-based
[13] = test system: Pseudomonas aeruginosa NCTC 10490; assay: as above; assay type: cell-based
[14] = test system: Bacillus subtilis PCI 219; assay: as above; assay type: cell-based
[15] = test system: Peptostreptococcus parvulus; assay: MIC against anaerobic bacteria, GAM agar medium; assay type: cell-based
Clostridium symbiosum = assay: MIC against anaerobic bacteria, GAM agar medium; assay type: cell-based

Structure (SMILES)	MIC (Clostridium ramosum) [µg/mL]	MIC (Eubacterium cylindroides) [µg/mL]	MIC [1] [µg/mL]	MIC (Clostridium perfringens) [µg/mL]	MIC [2] [µg/mL]	MIC [3] [µg/mL]	MIC (Propionibacterium acnes) [µg/mL]	MIC [4] [µg/mL]	MIC [5] [µg/mL]	MIC [6] [µg/mL]	MIC (Bacteroides fragilis) [µg/mL]	MIC [7] [µg/mL]	MIC [8] [µg/mL]	MIC (Clostridium difficile) [µg/mL]	MIC [9] [µg/mL]	MIC [10] [µg/mL]	solubility in acetone (Solubility in solvents; as its sulfate)	solubility in benzene (Solubility in solvents; as its sulfate)	solubility in chloroform (Solubility in solvents; as its sulfate)	solubility in ethyl acetate (Solubility in solvents; as its sulfate)	further results
CNC(C(=O)NC1C(=O)NC(c2ccc(O)c(Cl)c2)C(=O)NC2C(=O)NC3C(=O)NC(C(=O)NC(C(=O)O)c4cc(O)cc(O)c4-c4cc3ccc4O)C(OC3CC(N)C(O)C(C)O3)c3ccc(c(Cl)c3)Oc3cc2cc(c3OC2OC(CO)C(O)C(O)C2O)Oc2ccc(cc2Cl)C1OC1OC(CO)C(O)C(O)C1O)c1ccc(OC2OC(C)C(O)C(O)C2O)cc1 (stereo not shown) [Chloropolysporin B, chloropolysporin B]	1.56 (≈ 0.844 µM)	6.25 (≈ 3.38 µM)	1.56 (≈ 0.844 µM)	0.20 (≈ 0.108 µM)	> 100	> 100	0.78 (≈ 0.422 µM)	3.13 (≈ 1.69 µM)	1.56 (≈ 0.844 µM)	> 100	> 100	25.0 (≈ 13.5 µM)	12.5 (≈ 6.76 µM)	0.78 (≈ 0.422 µM)	> 100	6.25 (≈ 3.38 µM)	sparingly soluble	insoluble	insoluble	insoluble	solubility in methanol (Solubility in solvents; as its sulfate): soluble; solubility in water (Solubility in solvents; as its sulfate): soluble; solubility in water (Solubility in solvents; free bases): insoluble in water; MIC [11]: 3.13 µg/mL (≈ 1.69 µM); MIC [12]: > 100 µg/mL; MIC [13]: > 100 µg/mL; MIC [14]: 0.78 µg/mL (≈ 0.422 µM); MIC [15]: 0.78 µg/mL (≈ 0.422 µM); MIC (Clostridium symbiosum): 1.56 µg/mL (≈ 0.844 µM)
CNC(C(=O)NC1C(=O)NC(c2ccc(O)c(Cl)c2)C(=O)NC2C(=O)NC3C(=O)NC(C(=O)NC(C(=O)O)c4cc(O)cc(O)c4-c4cc3ccc4O)C(OC3CC(N)C(O)C(C)O3)c3ccc(c(Cl)c3)Oc3cc2cc(c3OC2OC(CO)C(O)C(O)C2O)Oc2ccc(cc2Cl)C1OC1OC(CO)C(O)C(O)C1O)c1ccc(O)cc1 (stereo not shown) [Chloropolysporin C, chloropolysporin C]	1.56 (≈ 0.916 µM)	3.13 (≈ 1.84 µM)	1.56 (≈ 0.916 µM)	0.10 (≈ 0.0587 µM)	> 100	> 100	0.39 (≈ 0.229 µM)	3.13 (≈ 1.84 µM)	1.56 (≈ 0.916 µM)	> 100	> 100	12.5 (≈ 7.34 µM)	6.25 (≈ 3.67 µM)	0.39 (≈ 0.229 µM)	> 100	3.13 (≈ 1.84 µM)	sparingly soluble	insoluble	insoluble	insoluble	solubility in methanol (Solubility in solvents; as its sulfate): soluble; solubility in water (Solubility in solvents; as its sulfate): soluble; solubility in water (Solubility in solvents; free bases): insoluble in water; MIC [11]: 1.56 µg/mL (≈ 0.916 µM); MIC [12]: > 100 µg/mL; MIC [13]: > 100 µg/mL; MIC [14]: 0.78 µg/mL (≈ 0.458 µM); MIC [15]: 0.39 µg/mL (≈ 0.229 µM); MIC (Clostridium symbiosum): 0.39 µg/mL (≈ 0.229 µM)
